From patent publication US9969700B2, “P2X4 receptor antagonist” (NIPPON CHEMIPHAR CO., LTD, priority 2012, dated 2018)
Structures can show the parent of a compound that is named as a salt.

The molecules below were run against human P2X4 receptor (Homo sapiens (Human), UniProt Q99571) (assay: P2X4 receptor antagonist activity (ATP-induced intracellular calcium, Fura-2 AM)). Conditions: 1321N1 cells stably expressing human P2X4 receptor; test substance 15 minutes before ATP; read-out: Inhibitory activity IC50.
Sequence of human P2X4 receptor (Q99571 whole entry): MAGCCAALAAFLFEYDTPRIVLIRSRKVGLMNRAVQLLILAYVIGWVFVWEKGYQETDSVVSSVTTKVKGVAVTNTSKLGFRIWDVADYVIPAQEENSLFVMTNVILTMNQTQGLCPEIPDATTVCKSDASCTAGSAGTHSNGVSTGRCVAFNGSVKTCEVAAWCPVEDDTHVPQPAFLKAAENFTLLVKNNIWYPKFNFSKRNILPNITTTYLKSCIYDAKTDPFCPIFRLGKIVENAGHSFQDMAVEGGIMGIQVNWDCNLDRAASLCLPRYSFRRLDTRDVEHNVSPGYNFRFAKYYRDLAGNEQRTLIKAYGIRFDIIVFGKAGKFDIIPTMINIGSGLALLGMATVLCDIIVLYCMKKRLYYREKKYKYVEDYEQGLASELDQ
Type: cell-based
`O=C(Cc1ccccc1Cl)Nc1ccc(N2C(=O)CC(=O)Nc3c2ccc2ccccc32)cc1` [Example 13, 5-[4-[(2-Chlorophenylacetyl)amino]phenyl]-1H-naphtho[1,2-b][1,4]diazepine-2,4(3H,5H)-dione] gave an IC50 of 0.54 µM. For `O=C1CC(=O)N(c2ccc(NC(=O)Nc3ccccc3)cc2)c2ccc3ccccc3c2N1` [Example 20, 1-[4-(2,4-Dioxo-1,2,3,4-tetrahydronaphtho[1,2-b][1,4]diazepin-5-yl)phenyl]-3-phenylurea], the IC50 was 1.2 µM. For `O=C1CC(=O)N(c2ccc(NC(=O)c3c(O)cccc3Cl)cc2)c2ccc3ccccc3c2N1` [Example 118, 5-[4-(6-Chloro-2-hydroxybenzoylamino)phenyl]-1H-naphtho[1,2-b][1,4]diazepine-2,4(3H,5H)-dione], the IC50 was 1.1 µM. Work on `CN(c1ccc(N2C(=O)CC(=O)Nc3c2ccc2c3CCCC2)cc1)S(=O)(=O)Cc1ccccc1Cl` [Example 196, 1-(2-Chlorophenyl)-N-[4-(2,4-dioxo-1,2,3,4,8,9,10,11-octahydronaphtho[1,2-b][1,4]diazepin-5-yl)phenyl]-N-methylmethanesulfonamide] yielded an IC50 of 0.97 µM. `O=C1CN=C(c2ccc(NS(=O)(=O)Cc3ccccc3Cl)cc2)c2ccc3ccccc3c2N1` [Example 197, 1-(2-Chlorophenyl)-N-[4-(2-oxo-2,3-dihydro-1H-naphtho[1,2-e][1,4]diazepin-5-yl)phenyl]methanesulfonamide] gave an IC50 of 0.44 µM. With `Cc1ncccc1C(=O)Nc1ccc(N2C(=O)CC(=O)Nc3c2ccc2ccccc32)cc1` [Example 208, 5-[4-[(2-Methylpyridin-3-yl)carbonylamino]phenyl]-1H-naphtho[1,2-b][1,4]diazepine-2,4(3H,5H)-dione hydrochloride] the IC50 was 1.3 µM. `O=C1CC(=O)N(c2ccc(NC(=O)c3cccnc3Cl)cc2)c2ccc3ccccc3c2N1` [Example 209, 5-[4-[(2-Chloropyridin-3-yl)carbonylamino]phenyl]-1H-naphtho[1,2-b][1,4]diazepine-2,4(3H,5H)-dione] gave an IC50 of 0.94 µM. For `O=C(COc1ccccn1)Nc1ccc(N2C(=O)CC(=O)Nc3c2ccc2ccccc32)cc1` [Example 210, 5-[4-[2-[(Pyridin-2-yl)oxy]acetylamino]phenyl]-1H-naphtho[1,2-b][1,4]diazepine-2,4(3H,5H)-dione], the IC50 was 1.4 µM.

Each molecule was assayed on Neurogenic pain model (modified Chung model) (assay: Analgesic activity, von Frey filament test in neurogenic pain model (modified Chung model)). Conditions: rats, oral administration of 50 mg/kg, day 9 after the modified Chung operation; significant difference compared with vehicle group.
Type: in vivo
Procedure: Neurogenic pain model (modified Chung model) was prepared according to the description of Non-patent document 9. More specifically, under isoflurane anesthesia, back hair of rats was extensively shaved, the shaved parts were wiped with rubbing alcohol, the rate were fixed on an incubator in the abdominal position, and the skins were cut and opened along the dorsal median line on the upper and lower sides of the sacroiliac bone. The left lateral paravertebral muscle was separated in the sacral region, and then the ligament was separated. The sacroiliae rim and the upper part thereof were cut and opened along the pyramid, the L5 nerve was ligated, and the nerve was cut on the peripheral side. […]
The pain threshold value (paw withdrawal threshold (g)) was calculated according to the up down method by stimulating the sole with a von Frey filament (Stoelting Co., TOUCH-TEST SENSORY EVALUATOR) and determining presence or absence of withdrawal response.
As the von Frey filaments, seven filaments giving different stimulation strengths were used. The 50% threshold value was calculated according to the up down method by referring to the method of Chaplan et al. (Chaplan S R, Bach F W, Pogrel J W, Chung J M, Yaksh T L.: Quantitative assessment of tactile allodynia in the rat paw, J. Neurosci. Methods, 53:55-63 (1994). […]
`O=C1CC(=O)N(c2ccc(NC(=O)c3ccccc3I)cc2)c2ccc3ccccc3c2N1` [Example 48, 5-[4-(2-Iodobenozoylamino)phenyl]-1H-naphtho[1,2-b][1,4]diazepine-2,4(3H,5H)-dione] was tested, and the “pain threshold value (paw withdrawal threshold) of the diseased limb” value was “raised the pain threshold value of the diseased limb”. For `O=C1CC(=O)N(c2ccc(NC(=O)c3c(O)cccc3Cl)cc2)c2ccc3ccccc3c2N1` [Example 118, 5-[4-(6-Chloro-2-hydroxybenzoylamino)phenyl]-1H-naphtho[1,2-b][1,4]diazepine-2,4(3H,5H)-dione], the “pain threshold value (paw withdrawal threshold) of the diseased limb” value was “raised the pain threshold value of the diseased limb”.
